For test [1], the system named is HCV replicon cells clone A. In kind it is cell-based, hepatitis C virus. The settings on record: 1 mg/ml G418. The procedure: HCV replicon cells clone A are treated with various concentrations of NIM811 and BILN2061 either alone or in combination in the presence of 1 mg/ml G418.
For another test, the system named is Balb/c spleen cells. In words: Mixed Lymphocyte Reaction (MLR), activity relative to cyclosporin A. In kind it is cell-based, mice. The source says:
Cyclosporins which bind strongly to cyclophilin but are not immunosuppressive have been identified. A cyclosporin is considered to be non-immunosuppressive when it has an activity in the Mixed Lymphocyte Reaction (MLR) of no more than 5%, preferably no more than 2%, that of cyclosporin A. The Mixed Lymphocyte Reaction is described by T. Meo in “Immunological Methods”, L. Lefkovits and B. Peris, Eds., Academic Press, N.Y. pp. 227-239 (1979). Spleen cells (0.5×10^6) from Balb/c mice (female, 8˜10 weeks) are co-incubated for 5 days with 0.5×10^6 irradiated (2000 rads) or mitomycin C treated spleen cells from CBA mice (female, 8˜10 weeks). The irradiated allogeneic cells induce a proliferative response in the Balb/c spleen cells which can be measured by labeled precursor incorporation into the DNA. […] The IC50 found for the test compound in the MLR is compared with that found for cyclosporin A in a parallel experiment. In addition, non-immunosuppressive cyclosporins lack the capacity of inhibiting CN and the downstream NF-AT pathway.

The target in test [2] is human recombinant cyclophilin (Homo sapiens, UniProt P62937). Briefly: competitive ELISA for binding to cyclophilin (Binding Ratio vs cyclosporin A). To be noted: negative value = binding stronger than cyclosporin A. The procedure: A cyclosporin is considered as binding to cyclophilin if it binds to human recombinant cyclophilin at least one fifth as well as does cyclosporin A in the competitive ELISA test described by Quesniaux in Eur. J. Immunol. 1987 17:1359-1365. In this test, the cyclosporin to be tested is added during the incubation of cyclophilin with coated BSA-cyclosporin A and the concentration required to give a 50% inhibition of the control reaction without competitor is calculated (IC50). The results are expressed as the Binding Ratio (BR), which is the log to the base 10 of the ratio of the IC50 of the test compound and the IC50 in a simultaneous test of cyclosporin A itself.
Background: An ELISA detects its analyte on a solid surface through an enzyme-linked reagent.

In test [3] the test system is HCV replicon cells clone A. Briefly: nine-day viral RNA reduction assay (quantitative RT-PCR). In kind it is cell-based, hepatitis C virus. The protocol:
Analysis of the effect of combination treatment, are examined using nine-day viral RNA reduction assays. HCV replicon cells clone A are treated with compounds in DMEM supplemented with 10% FBS and 0.2% DMSO for 3, 6, or 9 days, then the total intracellular RNA is extracted, and the level of HCV RNA is determined by real-time quantitative RT-PCR (Taqman) using HCV-specific primers and probe as described above. For each treatment, the quantity of HCV RNA is normalized against the amount of total RNA extracted, which is determined in a Quant-iT assay (Molecular Probe). The log reduction of HCV RNA is calculated by comparing the level of HCV RNA in compound-treated cells to that of untreated cells.

This note sets out measurements from patent publication US7897565B2, “Compositions for HCV treatment” (priority 2004, dated 2011).

Non-standard residues stand in square brackets, D forms with d. Residues, ends and D or L forms follow the SMILES beside them. ξ: configuration not given here. ξNMeBmt = C/C=C/C[C@@H](C)[C@@H](O)C(NC)C(=O)O; NMeL = CN[C@@H](CC(C)C)C(=O)O; NMeV = CN[C@H](C(=O)O)C(C)C; NMeA = CN[C@@H](C)C(=O)O; Abu = CC[C@H](N)C(=O)O; Sar = CNCC(=O)O

Sequence of human recombinant cyclophilin (P62937 whole entry): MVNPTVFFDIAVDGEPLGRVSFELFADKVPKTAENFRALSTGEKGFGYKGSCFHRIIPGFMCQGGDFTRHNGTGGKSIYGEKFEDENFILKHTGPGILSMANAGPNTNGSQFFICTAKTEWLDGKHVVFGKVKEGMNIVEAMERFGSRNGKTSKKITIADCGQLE

`COc1ccc2c(O[C@@H]3C[C@H]4C(=O)N[C@]5(C(=O)O)C[C@H]5/C=C\CCCCC[C@H](NC(=O)OC5CCCC5)C(=O)N4C3)cc(-c3csc(NC(C)C)n3)nc2c1` [BILN2061]: the “treatment time after which resistant colonies start to form” value in test [1] is listed as 2 weeks.

For `C/C=C/C[C@@H](C)[C@@H](O)C1C(=O)N[C@@H](CC)C(=O)N(C)CC(=O)N(C)[C@@H](CC(C)C)C(=O)N[C@@H](C(C)C)C(=O)N(C)[C@@H](CC(C)C)C(=O)N[C@@H](C)C(=O)N[C@H](C)C(=O)N(C)[C@@H](CC(C)(C)O)C(=O)N(C)[C@@H](CC(C)C)C(=O)N(C)[C@@H](C(C)C)C(=O)N1C` (stereo partly shown) [[γ-hydroxy-MeLeu]^9-Ciclosporin], the “IR (Immunosuppressive Ratio), percentage of the activity relative to Cyclosporin A” value with Balb/c spleen cells came to 2.9%. Further, the “BR (Binding Ratio): log to the base 10 of the ratio of the IC50 of the test compound and the IC50 of cyclosporin A” value (shortened to “BR (Binding Ratio): log”) in test [2] stood at 0.15.

Turning to IFN-α, the “log reduction of HCV RNA” value in test [3] (5 U/ml IFN-α alone, 9 days) is on record as 1.2 log.

On to `C/C=C/C[C@@H](C)[C@@H](O)C1C(=O)N[C@@H](CC)C(=O)N(C)CC(=O)N(C)[C@@H](CC(C)C)C(=O)N(C)[C@@H](C(C)C)C(=O)N(C)[C@@H](CC(C)C)C(=O)N[C@@H](C)C(=O)N[C@H](C)C(=O)N(C)[C@@H](CC(C)C)C(=O)N(C)[C@@H](CC(C)C)C(=O)N(C)[C@@H](C(C)C)C(=O)N1C` (stereo partly shown) [[MeVal]^5-Ciclosporin], for which the “IR (Immunosuppressive Ratio), percentage of the activity relative to Cyclosporin A” value with Balb/c spleen cells came to 5.3%. Also, the “BR (Binding Ratio): log” value in test [2] was 0.4.

As to [Ethyl-Ile]^4-Ciclosporin, in test [2], the “BR (Binding Ratio): log” value came to 0.1.

For `CC=CCC(C)C(O)C1C(=O)NC(CC)C(=O)N(C)CC(=O)N(C)C(C(C)C)C(=O)NC(C(C)C)C(=O)N(C)C(CC(C)C)C(=O)NC(C)C(=O)NC(C)C(=O)N(C)C(CC(C)C)C(=O)N(C)C(CC(C)C)C(=O)N(C)C(C(C)C)C(=O)N1C` (stereo not shown) [[MeVal]^4-Ciclosporin], in test [2], the “BR (Binding Ratio): log” value was 0.1.

As to [Ethyl-Val]^4-Ciclosporin, in test [2], the “BR (Binding Ratio): log” value worked out at 0.

In the case of `C/C=C/C[C@@H](C)[C@@H](O)[C@H]1C(=O)N[C@@H](CC)C(=O)N(C)CC(=O)N(C)[C@@H]([C@@H](C)CC)C(=O)N[C@@H](C(C)C)C(=O)N(C)[C@@H](CC(C)C)C(=O)N[C@@H](C)C(=O)N[C@H](C)C(=O)N(C)[C@@H](CC(C)C)C(=O)N(C)[C@@H](CC(C)C)C(=O)N(C)[C@@H](C(C)C)C(=O)N1C` [NIM811, [Melle]^4-Ciclosporin], the “log reduction of HCV RNA” value is listed as 1.2 log in test [3] (0.5 μM NIM811 alone, 9 days of treatment) and “greater than 3 log” in test [3] (1 μM NIM811 alone, 9 days of treatment). In test [2], the “BR (Binding Ratio): log” value was −0.2.

On to `C/C=C/C[C@@H](C)[C@@H](O)C1C(=O)N[C@@H](CC)C(=O)N(C)CC(=O)N(C)[C@@H](CC(C)C)C(=O)N[C@@H](C(C)C)C(=O)N(C)[C@@H](C)C(=O)N[C@@H](C)C(=O)N[C@H](C)C(=O)N(C)[C@@H](CC(C)C)C(=O)N(C)[C@@H](CC(C)C)C(=O)N(C)[C@@H](C(C)C)C(=O)N1C` (stereo partly shown) [[MeAla]^6-Ciclosporin] (cyclo(A[dA][NMeL][NMeL][NMeV][ξNMeBmt][Abu][Sar][NMeL]V[NMeA])), for which the “IR (Immunosuppressive Ratio), percentage of the activity relative to Cyclosporin A” value in the test on Balb/c spleen cells is reported as 3.2%. Moreover, the “BR (Binding Ratio): log” value in test [2] is −0.4.

Turning to `CC[C@@H]1NC(=O)C([C@H](O)[C@H](C)C/C=C/CO)N(C)C(=O)[C@H](C(C)C)N(C)C(=O)[C@H](CC(C)C)N(C)C(=O)[C@H](CC(C)C)N(C)C(=O)[C@@H](C)NC(=O)[C@H](C)NC(=O)[C@H](CC(C)C)N(C)C(=O)[C@H](C(C)C)NC(=O)[C@H](CC(C)C)N(C)C(=O)CN(C)C1=O` (stereo partly shown) [[8′-hydroxy-MeBmt]^5-Ciclosporin], the “IR (Immunosuppressive Ratio), percentage of the activity relative to Cyclosporin A” value in the test on Balb/c spleen cells is 1.8%. For the same compound, the “BR (Binding Ratio): log” value in test [2] was 0.35.
